Source: US11154519B2, “Inhibitors and their uses” (MEDICAL RESEARCH COUNCIL, priority 2015, dated 2021)

Experiments:
R15A or R15B = test: Selective binding towards R15A or R15B (based on SPR); set-up: species or system human
Method: In one embodiment, the compounds of formula IB inhibit PPP1R15A and PPP1R15B. Inhibition of PPP1R15A and PPP1R15B can be determined from binding analysis. For example, binding can be analysed using SPR (surface plasmon resonance) to obtain KD values. A PPP1R15A and PPP1R15B inhibitor may be defined as a compound where the difference in KD values between R15A and R15B is no more than about 3 fold.
Small molecules were stored as 50 mM stock solutions in 100% DMSO. Prior to determining binding constants, serial dilutions of either 12 or 8 concentrations of the compounds were prepared in the running buffer in a 96-well plate. Prior to each compound dilution series the regulatory subunit, MBP-R15A^325-636-His or MBP-R15B^340-698-His, was diluted to 10 μM in the running buffer and captured on the bio-PP1c surface at a flow rate of 30 μl/min for 1 minute to form the holophosphatase complex on the sensor chip surface. This was followed by 1 minute stabilization period, to wash off any unspecific binding. Then, without regenerating the surface, the compound dilution series was injected onto the surface of the chip at a flow rate of 30 μl/min for 1 minute, followed by 2 minutes dissociation time. After each dilution series the surface was regenerated using 3 M NaCl for 90 seconds. After regeneration, SPR responses generally returned to base levels and the bio-PP1c surface was ready for the next compound dilution series. In order to be able to correct for small variations in DMSO concentration between samples, eight solvent samples ranging from 0.06 to 8% DMSO were injected every 50th cycle. The flow cell temperature was 10° C.
Sensorgrams were analyzed using the Biacore T200 evaluation software and the binding constants determined based on a steady-state model. Kinetic experiments are carried out using different concentrations of the compound and their respective equilibrium binding levels determined.

HeLa cells = test: Cytoprotection against ER stress (tunicamycin), IncuCyte; type: cell-based; conditions: Homo sapiens, 250 ng/ml Tunicamycin, 72 hours, compound 0-20 μM, read-out: Cytoprotection from Tm (compared to GNB)
Method: HeLa cells (40,000 cells/ml) were plated in a 96-well plate and treated with different concentrations (0-20 μM) of a compound as indicated in the presence of 250 ng/ml Tunicamycin for 72 hours. To monitor cell death 1/2000 dilution of the CellTox green dye (Promega) was added to the media. The growth of the cells was monitored over time and pictures taken every 2 hours with the IncuCyte ZOOM system and analysed by the IncuCyte ZOOM software (Essen BioScience). […] Cytoprotection against ER stress can be measured by a suitable assay. In this instance, cytoprotection was measured in HeLa cells in which ER stress was elicited by the addition of media containing tunicamycin, a drug that blocks N-glycosylation, thereby preventing protein folding and inducing the unfolded protein response. Cell viability was then detected in the presence and absence of a compound listed in Table 1 after a set period of time, by monitoring cell growth over time. Cytoprotection from ER stress was measured in terms of the percentage increase in viable cells (relative to control) after ER stress.

SMILES	Selective binding towards R15A or R15B (based on SPR) (R15A or R15B)	Emax (HeLa cells)
[H]/N=C(\N)NN=Cc1c(Cl)ccc(Cl)c1Cl [Compound 31, (E)-2-(2,3,6-trichlorobenzylidene)hydrazine-1-carboximidamide]	R15AB (A PPP1R15A and PPP1R15B inhibitor may be defined as a compound where the difference in KD values between R15A and R15B is no more than about 3 fold)	99%
[H]/N=C(\N)NN=Cc1cc(Cl)cc(Cl)c1 [Compound 34, (E)-2-(3,5-dichlorobenzylidene)hydrazine-1-carboximidamide]	R15AB (A PPP1R15A and PPP1R15B inhibitor may be defined as a compound where the difference in KD values between R15A and R15B is no more than about 3 fold)	57%
